Measured values: patent publication US20120059162A1, “FUSED IMIDAZOLE DERIVATIVE HAVING TTK INHIBITORY ACTION” (Oncotherapy Science, Inc., priority 2009, published 2012)
Where two headings read alike, the source gives them in different places.

Experiments:
[1] = target: T1, TTK (Homo sapiens, UniProt P33981); experiment: TTK assay: screening of TTK kinase activity suppressing action using p38 MAPK peptide; type: biochemical
T1 sequence (P33981 1-857): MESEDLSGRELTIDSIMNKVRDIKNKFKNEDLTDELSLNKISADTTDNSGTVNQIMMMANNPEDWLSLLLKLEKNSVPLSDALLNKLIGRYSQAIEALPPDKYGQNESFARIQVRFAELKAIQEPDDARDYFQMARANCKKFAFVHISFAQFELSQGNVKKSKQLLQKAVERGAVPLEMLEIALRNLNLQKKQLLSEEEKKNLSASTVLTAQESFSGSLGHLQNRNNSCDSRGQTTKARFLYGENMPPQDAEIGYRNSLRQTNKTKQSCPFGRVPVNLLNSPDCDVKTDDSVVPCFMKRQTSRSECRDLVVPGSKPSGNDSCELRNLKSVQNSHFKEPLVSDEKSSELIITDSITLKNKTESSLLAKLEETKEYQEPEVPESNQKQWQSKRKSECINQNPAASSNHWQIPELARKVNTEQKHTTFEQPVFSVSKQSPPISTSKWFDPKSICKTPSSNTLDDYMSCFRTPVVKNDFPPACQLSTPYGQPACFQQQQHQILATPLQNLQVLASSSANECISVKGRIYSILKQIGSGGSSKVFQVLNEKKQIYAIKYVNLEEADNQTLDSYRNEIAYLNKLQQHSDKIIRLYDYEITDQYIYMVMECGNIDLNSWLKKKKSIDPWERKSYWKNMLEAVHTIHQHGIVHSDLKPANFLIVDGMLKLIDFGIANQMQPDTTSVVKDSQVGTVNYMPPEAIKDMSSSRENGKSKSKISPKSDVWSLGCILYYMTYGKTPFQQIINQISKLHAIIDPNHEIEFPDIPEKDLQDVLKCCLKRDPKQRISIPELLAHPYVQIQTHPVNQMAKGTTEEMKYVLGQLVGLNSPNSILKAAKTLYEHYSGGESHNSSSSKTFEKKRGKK
Procedure: Screening of a compound having a TTK kinase activity suppressing action using p38 MAPK peptide
A test substance 1.0 μL (solvent: 10% (v/v) DMSO), TTK solution 5 μL (composition: 4 μg/ml TTK, 25 mM Tris-HCl, pH7.5, 5 mM β-glycerophosphate, 2 mM DTT, 0.1 mM Na3VO4, 5 mM MgCl2, 0.1% (w/v)BSA) and a substrate solution 5 μL (composition: 60 μM p38 MAPK peptide, 60 μM ATP, 25 mM Tris-HCl, pH7.5, 5 mM β-glycerophosphate, 2 mM DTT, 0.1 mM Na3VO4, 5 mM MgCl2, 0.1% (w/v)BSA) were mixed in the wells of a 384-well microtiter plate (manufactured by Corning Incorporated) made of polypropylene and loaded in a constant temperature and humidity room.
From the resultant mixture, an aliquot of 1.7 μL was taken out and mixed with the reaction terminating solution (60 μl) in the wells of a 384-well microtiter plate (manufactured by Corning Incorporated) made of polypropylene. Thereafter, 40 μL of the mixture was transferred to a 384-well black NeutrAvidin plate (PIERCE), sealed and incubated under room temperature for 30 minutes. […] Similarly, the plate was washed with TTBS (100 μL) three times, 40 μl of a secondary antibody solution (Eu-N1 labeled Anti-mouse IgG (Perkin Elmer, #AD0124)) was added and incubated under room temperature for 30 minutes. After the plate was washed with TTBS (100 μL) five times, 40 μL of an enhance solution (Perkin Elmer) was added and incubated under room temperature for 5 minutes. […] Based on the fluorescence value in the absence of a test substance, the suppression activity of a test substance was measured.

[2] = tested on: A549; experiment: A549 assay: screening of cancer cell growth inhibiting compound; type: cell-based; conditions: Homo sapiens
Procedure: Screening of Cancer Cell Growth Inhibiting Compound
A cell suspension solution (RERF-LC-AI, A549: 1×10^4/ml, MRC5: 3×10^4/ml and 1×10^5/ml) adjusted to an appropriate concentration with D-MEM (hereinafter, referred to as a culture solution and manufactured by Nacalai Tesque Inc.) supplemented with 10% FBS (HyClone) was added to the wells of a 96-well plate (hereinafter, well plate) at a rate of 100 μL/well and incubated in a CO2 incubator at 37° C. for a day. […] Next, cells were added to each well of the well plate prepared and the above compound dilution solution was added at a rate of 100 μL/well to obtain 200 μL/well. Thereafter, the cells were incubated in the CO2 incubator at 37° C. for further three days. To each well of the well plate, 10 μL of a WST-8 kit (Kishida Chemical Co., Ltd.) solution for counting the number of cells was added and a color reaction was performed in the CO2 incubator for 1 to 4 hours. After the absorbance at 450 nm (reference wavelength: 620 nm) was measured by a microplate reader, suppressing action of the test substance was calculated based on the absorbance value in the absence of a test substance.

[3] = p38 MAPK peptide substrate, read-out: TTK IC50
[4] = 72 h, A549 cells, three days, WST-8, read-out: A549 IC50

SMILES	IC50 [1, 3] [nM]	IC50 [2, 4] [µM]	IC50 ([1]; read-out: TTK IC50) [nM]	IC50 [1] [nM]	IC50 ([2]; A549, 72 h, read-out: A549 IC50 (μM)) [µM]
N#Cc1ccc(-c2cn3c(-c4ccc(C(=O)NC5CC5)cc4)cnc3c(NCc3cccs3)n2)cc1 [Example 1-212]	7.2	0.05 to 0.5			
N#CCCNc1nc(-c2ccc(C#N)cc2)cn2c(-c3ccc(C(=O)NC4CC4)cc3)cnc12 [Example 1-213]	16.1	0.05 to 0.5			
N#Cc1ccc(-c2cn3c(-c4ccc(C(=O)NC5CC5)cc4)cnc3c(NCCSCCO)n2)cc1 [Example 1-214]	6.7	0.05 to 0.5			
N#Cc1ccc(-c2cn3c(-c4ccc(C(=O)NC5CC5)cc4)cnc3c(NCCN3CCOCC3)n2)cc1 [Example 1-216]	20.4	0.05 to 0.5			
N#Cc1ccc(-c2cn3c(-c4ccc(C(=O)NC5CC5)cc4)cnc3c(NCCOCCO)n2)cc1 [Example 1-217]	48.9	1 to 10			
N#Cc1ccc(-c2cn3c(-c4ccc(C(=O)NC5CC5)cc4)cnc3c(NCCCO)n2)cc1 [Example 1-218]	14.4	0.05 to 0.5			
N#Cc1ccc(-c2cn3c(-c4ccc(C(=O)NC5CC5)cc4)cnc3c(NCC3CC3)n2)cc1 [Example 1-219]	9.5	0.05 to 0.5			
N#Cc1ccc(-c2cn3c(-c4ccc(C(=O)NC5CC5)cc4)cnc3c(NCc3nccs3)n2)cc1 [Example 1-220]	19.6	0.05 to 0.5			
N#Cc1ccc(-c2cn3c(-c4ccc(C(=O)NC5CC5)cc4)cnc3c(NCCC3CCOCC3)n2)cc1 [Example 1-221]	9.5	0.05 to 0.5			
N#Cc1ccc(-c2cn3c(-c4ccc(C(=O)NC5CC5)cc4)cnc3c(NCC3COCCO3)n2)cc1 (stereo not shown) [Example 1-222]	16.8	0.05 to 0.5			
N#Cc1ccc(-c2cn3c(-c4ccc(C(=O)NC5CC5)cc4)cnc3c(NCCS(=O)(=O)N3CCCC3)n2)cc1 [Example 1-224]	18.3	0.5 to 1			
N#Cc1ccc(-c2cn3c(-c4ccc(C(=O)NC5CC5)cc4)cnc3c(NCCc3cccc(O)c3)n2)cc1 [Example 1-226]	17.1	0.5 to 1			
N#Cc1ccc(-c2cn3c(-c4ccc(C(=O)NC5CC5)cc4)cnc3c(NCCc3ccc(O)cc3)n2)cc1 [Example 1-228]	20.5	0.5 to 1			
CC(=O)N1CCC(CNc2nc(-c3ccc(C#N)cc3)cn3c(-c4ccc(C(=O)NC5CC5)cc4)cnc23)CC1 [Example 1-233]	20.2	0.5 to 1			
CC(C)(O)CNc1nc(-c2ccc(C#N)cc2)cn2c(-c3ccc(C(=O)NC4CC4)cc3)cnc12 [Example 1-235]	12.8	0.05 to 0.5			
N#Cc1ccc(-c2cn3c(-c4ccc(C(=O)NC5CC5)cc4)cnc3c(NCC(F)F)n2)cc1 [Example 1-236]	8.3	0.05 to 0.5			
N#Cc1ccc(-c2cn3c(-c4ccc(C(=O)NC5CC5)cc4)cnc3c(NCCOCCOCCO)n2)cc1 [Example 1-237]	39.9	1 to 10			
N#Cc1ccc(-c2cn3c(-c4ccc(C(=O)NC5CC5)cc4)cnc3c(NCCCCO)n2)cc1 [Example 1-238]	14.3	0.05 to 0.5			
N#Cc1ccc(-c2cn3c(-c4ccc(C(=O)NC5CC5)cc4)cnc3c(NC[C@H]3CC[C@H](C(=O)O)CC3)n2)cc1 [Example 1-239]	4.8	1 to 10			
CC(C)CNc1cc(NC2CCCCC2)nn2c(-c3ccc(C(=O)NC4CC4)cc3)cnc12 [Example 2-2, 4-(6-(Cyclohexylamino)-8-(isobutylamino)imidazo[1,2-b]pyridazin-3-yl)-N-cyclopropylbenzamide]				11.8	0.05 to 0.5

Now from value to compound, other results behind:

IC50 [1, 3] [nM]	IC50 [2, 4] [µM]	IC50 ([1]; read-out: TTK IC50) [nM]	SMILES	IC50 [1] [nM]	IC50 ([2]; A549, 72 h, read-out: A549 IC50 (μM)) [µM]
4.5	1 to 10		NC(=O)c1ccc(-c2cc(NCC3CCOCC3)c3ncc(-c4ccc(C(=O)NC5CC5)cc4)n3n2)cc1 [Example 2-4, 4-(6-(4-Carbamoylphenyl)-8-((tetrahydro-2H-pyran-4-yl)methylamino)imidazo[1,2-b]pyridazin-3-yl)-N-cyclopropylbenzamide]		
11.9	0.05 to 0.5		O=C(NC1CC1)c1ccc(-c2cc(NCC3CCOCC3)c3ncc(-c4ccc(C(=O)NC5CC5)cc4)n3n2)cc1 [Example 2-6, 4,4′-(8-((Tetrahydro-2H-pyran-4-yl)methylamino)imidazo[1,2-b]pyridazine-3,6-diyl)bis(N-cyclopropylbenzamide)]		
19.7	0.5 to 1		Cc1nc(C)c(-c2cc(NCC3CCOCC3)c3ncc(-c4ccc(C(=O)NC5CC5)cc4)n3n2)s1 [Example 2-9]		
8.4	0.05 to 0.5		O=C(NC1CC1)c1ccc(-c2cnc3c(NCC4CCOCC4)cc(N4CCCCC4)nn23)cc1 [Example 2-12]		
5.9	0.05 to 0.5		O=C(NC1CC1)c1ccc(-c2cnc3c(NCC4CCOCC4)cc(NC4CCOCC4)nn23)cc1 [Example 2-13]		
9.3	0.05 to 0.5		O=C(NC1CC1)c1ccc(-c2cnc3c(NCC4CCOCC4)cc(N4CCOCC4)nn23)cc1 [Example 2-14]		
25.7	0.05 to 0.5		CN1CCN(c2cc(NCC3CCOCC3)c3ncc(-c4ccc(C(=O)NC5CC5)cc4)n3n2)CC1 [Example 2-15]		
4.8	0.05 to 0.5		O=C(NC1CC1)c1ccc(-c2cnc3c(NCC4CCOCC4)cc(NCC4CCCCC4)nn23)cc1 [Example 2-16]		
3.1	≤ 0.05		CN(c1cc(NCC2CCOCC2)c2ncc(-c3ccc(C(=O)NC4CC4)cc3)n2n1)C1CCCCC1 [Example 2-17]		
18.4	0.05 to 0.5		COCCNc1cc(NCC2CCOCC2)c2ncc(-c3ccc(C(=O)NC4CC4)cc3)n2n1 [Example 2-18]		
6	0.05 to 0.5		CC1CCC(Nc2cc(NCC3CCOCC3)c3ncc(-c4ccc(C(=O)NC5CC5)cc4)n3n2)CC1 (stereo not shown) [Example 2-19]		
7	0.05 to 0.5		CCCNc1cc(NCC2CCOCC2)c2ncc(-c3ccc(C(=O)NC4CC4)cc3)n2n1 [Example 2-21]		
6.2	0.05 to 0.5		CC(C)CNc1cc(NCC2CCOCC2)c2ncc(-c3ccc(C(=O)NC4CC4)cc3)n2n1 [Example 2-22]		
8.8	0.05 to 0.5		N#CC1CCN(c2cc(NCC3CCOCC3)c3ncc(-c4ccc(C(=O)NC5CC5)cc4)n3n2)CC1 [Example 2-23]		
5.5	0.05 to 0.5		CC(C)N(C)c1cc(NCC2CCOCC2)c2ncc(-c3ccc(C(=O)NC4CC4)cc3)n2n1 [Example 2-24]		
5.6	0.05 to 0.5		O=C(NC1CC1)c1ccc(-c2cnc3c(NCC4CCOCC4)cc(NC4CCC4)nn23)cc1 [Example 2-25]		
		527	O=C(NC1CC1)c1ccc(-c2noc3c(NCC4CCOCC4)nc(NC4CCCC4)nc23)cc1 [Example 3-4, 4-(5-(cyclopentylamino)-7-((tetrahydro-2H-pyran-4-yl)methylamino)isoxazolo[4,5-d]pyrimidin-3-yl)-N-cyclopropylbenzamide]		
